Data published in PubChem BioAssay AID485276 (Southern Research Specialized Biocontainment Screening …, 2010).

What follows are compounds tested on BSC cells, SV40 CPE inhibition (assay: SV40 cytopathic effect inhibition and cytotoxicity, confirmation, BSC cells, set 3 (AID 485276)). Conditions: measured here: BSC cell cytotoxicity.

Compound | TC50 [µM]
Oc1ccc(Cl)cc1Cc1cc(Cl)ccc1O | 18
Oc1ccc(C2(c3ccc(O)cc3)CC2)cc1 | 196
Oc1ccc(Oc2ccc(O)cc2)cc1 | 9.92
CC(C)(c1ccc(O)cc1)c1ccc(Cl)cc1 | 71.2
Oc1c(Cl)cc(Cl)cc1Sc1cc(Cl)cc(Cl)c1O | 21.2
CC(C)(c1ccc(O)cc1)c1ccc(O)cc1 | 17
CC(C)c1cc(C(C)(C)c2ccc(O)c(C(C)C)c2)ccc1O | 24
